Data set [1] deals with cofilin (Homo sapiens, UniProt P23528). Nature of the data set: In vitro F-actin depolymerization assay. In kind it is biochemical. Also on record: purchased Cytoskeleton, Inc. The settings on record: SZ-3 5 μM, cofilin 0.25 μM, 30 min, rabbit muscle actin, SiR-actin probe. Here is the method:
The inhibitory effect of SZ-3 was tested using an F-actin depolymerization assay. Rabbit muscle actin (Cytoskeleton, Inc.) was reconstituted with general actin and incubated on ice for 30 min to depolymerize any existing actin oligomers. Cofilin (Cytoskeleton, Inc.) at 0.25 μM and SZ-3 (5 μM) were added together to the corresponding vials and incubated for 30 min to ensure cofilin depolymerization and efficacy of the SZ-3. SiR-actin probe (Cytoskeleton, Inc.) was added at 50 nM and incubated for 1 h to visualize actin filaments. Finally, 5-10 μl of each group was added to a slide and imaged with fluorescent microscope at 652 nm.
Cofilin inhibition with SZ-3 was tested using an f-actin depolymerization high-throughput screening assay.
SZ-3 inhibitory effect on cofilin was tested using F-actin depolymerization assay. Briefly, rabbit muscle actin (Cytoskeleton, Inc.) was reconstituted with general actin buffer to 40 μM (stock) and incubated on ice for 30 min to depolymerize any existing actin oligomers. Next, actin stock solution was further diluted to a 1 μM working solution and then polymerized into filaments with the addition of 1/10 th the volume of actin polymerization buffer (Cytoskeleton, Inc.). The mix was incubated at room temperature for 1 h to ensure optimum polymerization. […]

Data set [2] has as its system HMC3 cells. The data set is described as follows: Cell viability of LPS-challenged HMC3 cells (CellTiter-Glo Luminescent assay). In kind it is cell-based. The settings on record: LPS 0.1 μg/mL, SZ-3 5-10 μM concurrently. Here is the method:
Cultured HMC3 cells were challenged with 0.1 μg/mL of LPS and treated with different concentrations of SZ-3 concurrently. At the end of the experiment cells were harvested for MTT by CellTiter-Glo Luminescent assay (FIG. 9A), Griess assay for NO release (FIG. 9B), and TNF-α by ELISA (FIG. 9C).
After hemorrhage, activated microglia release proinflammatory mediators such as cytokines, chemokines, and nitric oxide (NO) leading to secondary injury which may be worse than the initial insult and may result in severe neurological deficits and death. In order to test whether the synthesized compound will reduce or stop microglial activation and inflammation after hemorrhage, whether the compound poses toxicity to microglia was first assessed. Human microglial cell line (HMC3) was challenged or activated with lipopolysaccharide (LPS) ([…]) and treated with different concentrations of the SZ-3 (10 and 5 μM) concurrently. CellTiter-Glo luminescent assay was used for cell viability; Griess reagent assay was used for NO release and ELISA was used for TNF-α estimations.
All types of cells used in these examples were assayed for viability and proliferation after 24-72 h using the MTT or CellTiter-Glo Luminescent assay Promega (Madison, Wis.). Cells after treatment were incubated with MTT reagent for 3 h in 5% CO2 at 37° C. […] Absorbance was read at 570 nm to quantify cell viability. […]
(In general: ATP-based viability assays read luminescence as a measure of living cells.)

The subject of data set [3] is HMC3 cells. Nature of the data set: Thrombin-induced cell death in HMC3 cells. In kind it is cell-based, human. The settings on record: thrombin 100 U/ml, SZ-3 10 μM. On the procedure:
(§1) FIG. 11: SZ-3 reduces inflammation through NF-κB mechanism. Cultured HMC3 cells were challenged with thrombin 100 U/ml and after 3 h were treated with different concentrations of SZ-3 (10 and 5 μM). Cells were harvested for WB analysis after 24 h.
(§2) All types of cells used in these examples were assayed for viability and proliferation after 24-72 h using the MTT or CellTiter-Glo Luminescent assay Promega (Madison, Wis.). Cells after treatment were incubated with MTT reagent for 3 h in 5% CO2 at 37° C. The medium was replaced with DMSO to dissolve formazan crystals. Absorbance was read at 570 nm to quantify cell viability. CellTiter-Glo reagents were used in some experiments by adding equal amounts of reagent to the amount of medium containing cells for a 96-well plate. Contents were mixed for 2 minutes then incubated the plate for 10 minutes at room temperature to stabilize luminescent signal.

Another data set concerns SHSY cells. The data set is described as follows: Thrombin-induced cell death in SHSY cells (MTT). In kind it is cell-based, human. The settings on record: thrombin 100 U/ml. On the procedure: (§3) The synthesized SZ-3 compound was tested for neuroprotective properties in cell-based models using a neuroblastoma cell line (SHSY) and thrombin as a stressor. Thrombin was used as a cell death inducer in cell-based models for hemorrhagic brain injury. SHSY cells were challenged by 100 U/ml thrombin and after 3 hrs treated with different concentrations of synthesized compounds. […] Cell death is observed through fluorescence.
as §2

The subject of the next data set is phosphocofilin. The data set is described as follows: WB of phosphocofilin in thrombin-challenged HMC3 cells. In kind it is cell-based, human. The settings on record: thrombin 100 U/ml, SZ-3 10, 5 μM after 3 h, WB after 24 h. Here is the method:
as §1
WB was used to assay the expression levels of cofilin, phosphocofilin, and NF-κB. […] Without wishing to be bound by theory, the role of phosphocofilin is not fully understood, but it is believed that it is decreased in stress conditions and its restoration is beneficial.
HMC3 cells were cultured in DMEM/F12 medium supplemented with 5% horse serum (HS), 10% fetal bovine serum (FBS), and 1% penicillin/streptomycin. Cells were stimulated with 100 U/ml thrombin from bovine plasma (Sigma) and treated without (vehicle) or with different concentrations of SZ-3.
(§4) Cells were harvested and washed with ice-cold lysis buffer (250 mM sucrose, 1.5 mM MgCl2, 10 mM KCl, 20 mM HEPES 7.6 pH, 1 mM of dithiothreitol, 1 mM phenylmethylsulfonyl fluoride, 50 mM NaF, 10 mM sodium orthovanadate, 20 mM sodium pyrophosphate, and protease inhibitors) for 15 min then supplemented with 5% of Nonidet P-40 for 2 min. […] Glyceraldehyde 3-phosphate dehydrogenase (GAPDH) or beta-actin were used as the loading control, and band intensity analyzed using Bio-Rad Chemi-Doc XRS Image Lab Software.

A short description of data set [4]: Solubility of SZ-3 in the mouse study. In kind it is physicochemical.
The subject of data set [5] is cofilin. The data set is described as follows: WB analysis of cofilin expression in thrombin-challenged SHSY cells. In kind it is cell-based, human. The settings on record: thrombin 100 U/ml, SZ-3 5 μM after 3 h, WB after 24 h. On the procedure:
as §3
as §4, with “min. Cytosolic fraction was collected from the supernatant after centrifugation at 14,000 g for 10 min. Bradford reagent (Bio-Rad Laboratories) was used to determine the protein concentrations, and equal amounts of samples were loaded onto 10-15% SDS-polyacrylamide gels, separated by electrophoresis, and transferred to PVDF membranes.” for “min.”

Entries after “also recorded” stand apart in the source; their conditions may differ.

Chain of cofilin (Homo sapiens, UniProt P23528) (P23528 whole entry): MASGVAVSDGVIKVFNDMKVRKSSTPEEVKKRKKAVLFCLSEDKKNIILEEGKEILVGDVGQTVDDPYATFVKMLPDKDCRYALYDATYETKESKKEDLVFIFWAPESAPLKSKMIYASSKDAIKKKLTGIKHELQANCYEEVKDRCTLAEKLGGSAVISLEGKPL

As for `CC(C)(C)c1ccc(O)c(CN(Cc2cc(C(C)(C)C)ccc2O)C2CCC(NC(N)=O)CC2)c1` (centres unmarked) [SZ-3, 4-{bis[(5-tert-butyl-2-hydroxyphenyl)methyl]amino}cyclohexyl urea], on cofilin [1], the “severing and depolymerizing activity of cofilin on F-actin” value was “prevented the severing and depolymerizing activity of cofilin; also recorded: binds to cofilin”. Besides, the “toxicity in LPS-challenged HMC3 cells” value in the data set on HMC3 cells [2] is on record as “No cell toxicity was observed”. Also, the “cell death induced by thrombin” value is reported as “significantly restored cell death induced by thrombin” in the data set with HMC3 cells [3] and “significantly reversed the cell death; also recorded: significantly restored cell death induced by thrombin” with SHSY cells (SZ-3 20, 10, 5 μM after 3 h, MTT after 24 h). For the same compound, in the data set with SHSY cells (SZ-3 10 μM), the “cell death induced by thrombin, best concentration” value is “showing the best effect”. The phosphocofilin expression level result in the data set on phosphocofilin was “reversed the expression levels”. For the same compound, the solubility entry in data set [4] is on record as “no solubility issues”. For the same compound, in the data set on cofilin [5], the cofilin expression entry is listed as “significantly reduced cofilin expression”.

These data come from US11548850B2, “Development of a cofilin inhibitor for the treatment of hemorrhagic brain injury-induced neuroinflammation” (The University of Toledo, priority 2019, dated 2023).
